Cc1ccc(N)c([N+](=O)[O-])c1
Settings	solubility (mole fraction)
in 1,2-dichloroethane, 278.15 K	0.0289
in 1,2-dichloroethane, 280.65 K	0.0326
in 1,2-dichloroethane, 283.15 K	0.0355
in 1,2-dichloroethane, 285.65 K	0.0397
in 1,2-dichloroethane, 288.15 K	0.0432
in 1,2-dichloroethane, 290.65 K	0.0468
in 1,2-dichloroethane, 293.15 K	0.0506
in 1,2-dichloroethane, 295.65 K	0.0548
in 1,2-dichloroethane, 298.15 K	0.0594
in 1,2-dichloroethane, 300.65 K	0.0642
in 1,2-dichloroethane, 303.15 K	0.0692
in 1,2-dichloroethane, 305.65 K	0.0747
in 1,2-dichloroethane, 308.15 K	0.0806
in 1,2-dichloroethane, 310.65 K	0.087
in 1,2-dichloroethane, 313.15 K	0.0937
in 1,2-dichloroethane, 315.65 K	0.101
in 1,2-dichloroethane, 318.15 K	0.109
in 1,4-dioxane, 283.15 K	0.0404
in 1,4-dioxane, 285.65 K	0.0452
in 1,4-dioxane, 288.15 K	0.0507
in 1,4-dioxane, 290.65 K	0.0568
in 1,4-dioxane, 293.15 K	0.0637
in 1,4-dioxane, 295.65 K	0.0712
in 1,4-dioxane, 298.15 K	0.0794
in 1,4-dioxane, 300.65 K	0.0883
in 1,4-dioxane, 303.15 K	0.0986
in 1,4-dioxane, 305.65 K	0.11
in 1,4-dioxane, 308.15 K	0.121
in 1,4-dioxane, 310.65 K	0.134
in 1,4-dioxane, 313.15 K	0.149
in 2-butanone, 278.15 K	0.12
in 2-butanone, 280.65 K	0.128
in 2-butanone, 283.15 K	0.136
in 2-butanone, 285.65 K	0.144
in 2-butanone, 288.15 K	0.153
in 2-butanone, 290.65 K	0.162
in 2-butanone, 293.15 K	0.171
in 2-butanone, 295.65 K	0.181
in 2-butanone, 298.15 K	0.191
in 2-butanone, 300.65 K	0.202
in 2-butanone, 303.15 K	0.213
in 2-butanone, 305.65 K	0.224
in 2-butanone, 308.15 K	0.236
in 2-butanone, 310.65 K	0.249
in 2-butanone, 313.15 K	0.261
in DMF, 278.15 K	0.0984
in DMF, 280.65 K	0.105
in DMF, 283.15 K	0.112
in DMF, 285.65 K	0.122
in DMF, 288.15 K	0.131
in DMF, 290.65 K	0.14
in DMF, 293.15 K	0.15
in DMF, 295.65 K	0.161
in DMF, 298.15 K	0.171
in DMF, 300.65 K	0.182
in DMF, 303.15 K	0.194
in DMF, 305.65 K	0.206
in DMF, 308.15 K	0.219
in DMF, 310.65 K	0.232
in DMF, 313.15 K	0.247
in acetonitrile, 278.15 K	0.0274
in acetonitrile, 280.65 K	0.0302
in acetonitrile, 283.15 K	0.0334
in acetonitrile, 285.65 K	0.0369
in acetonitrile, 288.15 K	0.0406
in acetonitrile, 290.65 K	0.0447
in acetonitrile, 293.15 K	0.0493
in acetonitrile, 295.65 K	0.0543
in acetonitrile, 298.15 K	0.0602
in acetonitrile, 300.65 K	0.0657
in acetonitrile, 303.15 K	0.0721
in acetonitrile, 305.65 K	0.0794
in acetonitrile, 308.15 K	0.0872
in acetonitrile, 310.65 K	0.0955
in acetonitrile, 313.15 K	0.105
in chlorobenzene, 278.15 K	0.016
in chlorobenzene, 280.65 K	0.0174
in chlorobenzene, 283.15 K	0.0194
in chlorobenzene, 285.65 K	0.0216
in chlorobenzene, 288.15 K	0.0239
in chlorobenzene, 290.65 K	0.0262
in chlorobenzene, 293.15 K	0.0288
in chlorobenzene, 295.65 K	0.0316
in chlorobenzene, 298.15 K	0.0349
in chlorobenzene, 300.65 K	0.0383
in chlorobenzene, 303.15 K	0.0421
in chlorobenzene, 305.65 K	0.0463
in chlorobenzene, 308.15 K	0.0507
in chlorobenzene, 310.65 K	0.0556
in chlorobenzene, 313.15 K	0.0611
in chlorobenzene, 315.65 K	0.0671
in chlorobenzene, 318.15 K	0.0738
in ethanol, 278.15 K	0.00983
in ethanol, 280.65 K	0.0107
in ethanol, 283.15 K	0.0118
in ethanol, 285.65 K	0.0128
in ethanol, 288.15 K	0.0139
in ethanol, 290.65 K	0.0152
in ethanol, 293.15 K	0.0165
in ethanol, 295.65 K	0.0179
in ethanol, 298.15 K	0.0194
in ethanol, 300.65 K	0.021
in ethanol, 303.15 K	0.0228
in ethanol, 305.65 K	0.0246
in ethanol, 308.15 K	0.0266
in ethanol, 310.65 K	0.0289
in ethanol, 313.15 K	0.0312
in ethyl acetate, 278.15 K	0.076
in ethyl acetate, 280.65 K	0.0816
in ethyl acetate, 283.15 K	0.087
in ethyl acetate, 285.65 K	0.0933
in ethyl acetate, 288.15 K	0.0996
in ethyl acetate, 290.65 K	0.106
in ethyl acetate, 293.15 K	0.113
in ethyl acetate, 295.65 K	0.12
in ethyl acetate, 298.15 K	0.128
in ethyl acetate, 300.65 K	0.136
in ethyl acetate, 303.15 K	0.144
in ethyl acetate, 305.65 K	0.153
in ethyl acetate, 308.15 K	0.162
in ethyl acetate, 310.65 K	0.172
in ethyl acetate, 313.15 K	0.182
in isopropanol, 278.15 K	0.0102
in isopropanol, 280.65 K	0.0112
in isopropanol, 283.15 K	0.0122
in isopropanol, 285.65 K	0.0134
in isopropanol, 288.15 K	0.0146
in isopropanol, 290.65 K	0.0161
in isopropanol, 293.15 K	0.0176
in isopropanol, 295.65 K	0.0192
in isopropanol, 298.15 K	0.0209
in isopropanol, 300.65 K	0.0227
in isopropanol, 303.15 K	0.0248
in isopropanol, 305.65 K	0.0268
in isopropanol, 308.15 K	0.0293
in isopropanol, 310.65 K	0.0317
in isopropanol, 313.15 K	0.0346
in methanol, 278.15 K	0.00863
in methanol, 280.65 K	0.00933
in methanol, 283.15 K	0.0104
in methanol, 285.65 K	0.0112
in methanol, 288.15 K	0.0121
in methanol, 290.65 K	0.0133
in methanol, 293.15 K	0.0144
in methanol, 295.65 K	0.0156
in methanol, 298.15 K	0.0169
in methanol, 300.65 K	0.0182
in methanol, 303.15 K	0.0198
in methanol, 305.65 K	0.0213
in methanol, 308.15 K	0.023
in methanol, 313.15 K	0.0268
in n-butanol, 278.15 K	0.0126
in n-butanol, 280.65 K	0.0138
in n-butanol, 283.15 K	0.0152
in n-butanol, 285.65 K	0.0166
in n-butanol, 288.15 K	0.018
in n-butanol, 290.65 K	0.0197
in n-butanol, 293.15 K	0.0214
in n-butanol, 295.65 K	0.0232
in n-butanol, 298.15 K	0.0253
in n-butanol, 300.65 K	0.0273
in n-butanol, 303.15 K	0.0297
in n-butanol, 305.65 K	0.0321
in n-butanol, 308.15 K	0.0348
in n-butanol, 310.65 K	0.0376
in n-butanol, 313.15 K	0.0406
in n-propanol, 278.15 K	0.0111
in n-propanol, 280.65 K	0.012
in n-propanol, 283.15 K	0.0132
in n-propanol, 285.65 K	0.0143
in n-propanol, 288.15 K	0.0157
in n-propanol, 290.65 K	0.017
in n-propanol, 293.15 K	0.0185
in n-propanol, 295.65 K	0.0202
in n-propanol, 298.15 K	0.0218
in n-propanol, 300.65 K	0.0237
in n-propanol, 303.15 K	0.0257
in n-propanol, 305.65 K	0.0278
in n-propanol, 310.65 K	0.0326
in n-propanol, 313.15 K	0.0352
in tetrachloromethane, 278.15 K	0.00242
in tetrachloromethane, 280.65 K	0.00265
in tetrachloromethane, 283.15 K	0.00297
in tetrachloromethane, 285.65 K	0.00333
in tetrachloromethane, 288.15 K	0.00371
in tetrachloromethane, 290.65 K	0.00406
in tetrachloromethane, 293.15 K	0.00452
in tetrachloromethane, 295.65 K	0.00497
in tetrachloromethane, 298.15 K	0.0055
in tetrachloromethane, 300.65 K	0.00602
in tetrachloromethane, 303.15 K	0.00662
in tetrachloromethane, 305.65 K	0.00721
in tetrachloromethane, 308.15 K	0.00797
in tetrachloromethane, 310.65 K	0.00876
in tetrachloromethane, 313.15 K	0.00963
in tetrachloromethane, 315.65 K	0.0105
in tetrachloromethane, 318.15 K	0.0117
in toluene, 278.15 K	0.0118
in toluene, 280.65 K	0.0131
in toluene, 283.15 K	0.0146
in toluene, 285.65 K	0.016
in toluene, 288.15 K	0.0176
in toluene, 290.65 K	0.0194
in toluene, 293.15 K	0.0215
in toluene, 295.65 K	0.0236
in toluene, 298.15 K	0.0259
in toluene, 300.65 K	0.0284
in toluene, 303.15 K	0.0312
in toluene, 305.65 K	0.0343
in toluene, 308.15 K	0.0375
in toluene, 310.65 K	0.0411
in toluene, 313.15 K	0.045

Reference: BigSolDB 2.1
